Measurements published in publication PMC6891286, “Towards the Development of an In vivo Chemical Probe for Cyclin G Associated Kinase (GAK)” (Molecules, 2019).

Legend:
Test in all cases: KINOMEscan
Type in all cases: binding
[1] = molecular target: T1, ABL1(F317L)-phosphorylated (Homo sapiens, UniProt P00519, F317L); details: 35 at 1 µM; read-out: % inhibition
T1 construct: purchased Eurofins DiscoverX (KINOMEscan)
Description: (§1) KinomeScan Assay on 35 was performed as previously described at EuroFins DiscoverX (Fremont, CA, USA).

[2] = molecular target: T2, ABL1(M351T)-phosphorylated (Homo sapiens, UniProt P00519, M351T); details: 35 at 1 µM; read-out: % inhibition
T2 construct: purchased Eurofins DiscoverX (KINOMEscan)
Description: as §1

ABL1-nonphosphorylated = molecular target: T3, ABL1-nonphosphorylated (Homo sapiens, UniProt P00519); details: 35 at 1 µM; read-out: % inhibition
T3 construct: purchased Eurofins DiscoverX (KINOMEscan)
Description: as §1

ACVRL1 = molecular target: T4, ACVRL1 (Homo sapiens, UniProt P37023); details: 35 at 1 µM; read-out: % inhibition
T4 construct: purchased Eurofins DiscoverX (KINOMEscan)
Description: as §1

BRK = molecular target: T5, BRK (Homo sapiens, UniProt Q13882); details: 35 at 1 µM; read-out: % inhibition
T5 construct: purchased Eurofins DiscoverX (KINOMEscan)
Description: as §1

CDK4-cyclinD1 = molecular target: T6, CDK4-cyclinD1 (Homo sapiens, UniProt P11802); details: 35 at 1 µM; read-out: % inhibition
T6 construct: purchased Eurofins DiscoverX (KINOMEscan)
T6 sequence (P11802 whole entry): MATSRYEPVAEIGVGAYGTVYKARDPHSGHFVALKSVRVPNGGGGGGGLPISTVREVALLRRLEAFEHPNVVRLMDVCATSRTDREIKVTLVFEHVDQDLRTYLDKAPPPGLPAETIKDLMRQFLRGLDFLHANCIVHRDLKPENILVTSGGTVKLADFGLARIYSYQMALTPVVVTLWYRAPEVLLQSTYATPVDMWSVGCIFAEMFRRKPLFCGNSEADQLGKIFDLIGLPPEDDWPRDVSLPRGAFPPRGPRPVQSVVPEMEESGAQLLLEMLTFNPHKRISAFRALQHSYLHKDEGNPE
T6 sequence (P24385 whole entry partner): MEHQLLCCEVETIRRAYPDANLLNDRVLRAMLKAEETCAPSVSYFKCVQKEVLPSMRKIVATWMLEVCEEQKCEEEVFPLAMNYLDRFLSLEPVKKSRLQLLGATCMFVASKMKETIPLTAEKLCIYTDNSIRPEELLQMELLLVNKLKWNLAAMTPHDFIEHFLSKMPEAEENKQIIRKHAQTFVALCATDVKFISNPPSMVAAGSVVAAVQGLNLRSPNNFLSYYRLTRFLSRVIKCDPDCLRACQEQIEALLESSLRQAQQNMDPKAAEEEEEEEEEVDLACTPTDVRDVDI
Description: as §1

CDK9 = molecular target: T7, CDK9 (Homo sapiens, UniProt P50750); details: 35 at 1 µM; read-out: % inhibition
T7 construct: purchased Eurofins DiscoverX (KINOMEscan)
Description: as §1

CDKL3 = molecular target: T8, CDKL3 (Homo sapiens, UniProt Q8IVW4); details: 35 at 1 µM; read-out: % inhibition
T8 construct: purchased Eurofins DiscoverX (KINOMEscan)
T8 sequence (Q8IVW4 whole entry): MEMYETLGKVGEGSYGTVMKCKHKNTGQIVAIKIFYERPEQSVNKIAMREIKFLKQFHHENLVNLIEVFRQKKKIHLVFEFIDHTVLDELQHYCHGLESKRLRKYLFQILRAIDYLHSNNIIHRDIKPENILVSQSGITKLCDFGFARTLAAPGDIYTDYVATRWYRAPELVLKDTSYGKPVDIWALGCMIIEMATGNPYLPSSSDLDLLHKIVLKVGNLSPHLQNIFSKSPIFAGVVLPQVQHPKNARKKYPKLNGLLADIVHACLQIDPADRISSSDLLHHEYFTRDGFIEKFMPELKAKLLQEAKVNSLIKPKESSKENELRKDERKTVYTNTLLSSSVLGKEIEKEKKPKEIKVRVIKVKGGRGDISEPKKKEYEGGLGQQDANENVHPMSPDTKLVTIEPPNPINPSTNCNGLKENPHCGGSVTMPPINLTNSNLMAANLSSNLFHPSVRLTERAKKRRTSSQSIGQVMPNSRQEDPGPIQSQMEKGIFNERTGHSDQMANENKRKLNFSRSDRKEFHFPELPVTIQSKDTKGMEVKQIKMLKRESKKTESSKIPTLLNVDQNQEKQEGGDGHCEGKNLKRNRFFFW
Description: as §1

CSNK1A1 = molecular target: T9, CSNK1A1 (Homo sapiens, UniProt P48729); details: 35 at 1 µM; read-out: % inhibition
T9 construct: purchased Eurofins DiscoverX (KINOMEscan)
Description: as §1

CSNK1A1L = molecular target: T10, CSNK1A1L (Homo sapiens, UniProt Q8N752); details: 35 at 1 µM; read-out: % inhibition
T10 construct: purchased Eurofins DiscoverX (KINOMEscan)
Description: as §1

[3] = molecular target: T11, EGFR(L747-S752del, P753S) (Homo sapiens, UniProt P00533, DEL747-752/P753S); details: 35 at 1 µM; read-out: % inhibition
T11 construct: purchased Eurofins DiscoverX (KINOMEscan)
Description: as §1

EPHA4 = molecular target: T12, EPHA4 (Homo sapiens, UniProt P54764); details: 35 at 1 µM; read-out: % inhibition
T12 construct: purchased Eurofins DiscoverX (KINOMEscan)
Description: as §1

EPHB6 = molecular target: T13, EPHB6 (Homo sapiens, UniProt O15197); details: 35 at 1 µM; read-out: % inhibition
T13 construct: purchased Eurofins DiscoverX (KINOMEscan)
Description: as §1

ERK3 = molecular target: T14, ERK3 (Homo sapiens, UniProt Q16659); details: 35 at 1 µM; read-out: % inhibition
T14 construct: purchased Eurofins DiscoverX (KINOMEscan)
Description: as §1

FGR = molecular target: T15, FGR (Homo sapiens, UniProt P09769); details: 35 at 1 µM; read-out: % inhibition
T15 construct: purchased Eurofins DiscoverX (KINOMEscan)
Description: as §1

FLT3(D835V) = molecular target: T16, FLT3(D835V) (Homo sapiens, UniProt P36888, D835V); details: 35 at 1 µM; read-out: % inhibition
T16 construct: purchased Eurofins DiscoverX (KINOMEscan)
Description: as §1

FRK = molecular target: T17, FRK (Homo sapiens, UniProt P42685); details: 35 at 1 µM; read-out: % inhibition
T17 construct: purchased Eurofins DiscoverX (KINOMEscan)
Description: as §1

HCK = molecular target: T18, HCK (Homo sapiens, UniProt P08631); details: 35 at 1 µM; read-out: % inhibition
T18 construct: purchased Eurofins DiscoverX (KINOMEscan)
Description: as §1

IKK-beta = molecular target: T19, IKK-beta (Homo sapiens, UniProt O14920); details: 35 at 1 µM; read-out: % inhibition
T19 construct: purchased Eurofins DiscoverX (KINOMEscan)
Description: as §1

INSR = molecular target: T20, INSR (Homo sapiens, UniProt P06213); details: 35 at 1 µM; read-out: % inhibition
T20 construct: purchased Eurofins DiscoverX (KINOMEscan)
Description: as §1

[4] = molecular target: T21, JAK1(JH2domain-pseudokinase) (Homo sapiens, UniProt P23458); details: 35 at 1 µM; read-out: % inhibition
T21 construct: JAK1(JH2domain-pseudokinase); purchased Eurofins DiscoverX (KINOMEscan)
Description: as §1

JNK2 = molecular target: T22, JNK2 (Homo sapiens, UniProt P45984); details: 35 at 1 µM; read-out: % inhibition
T22 construct: purchased Eurofins DiscoverX (KINOMEscan)
Description: as §1

KIT(V559D,V654A) = molecular target: T23, KIT(V559D,V654A) (Homo sapiens, UniProt P10721, V559D/V654A); details: 35 at 1 µM; read-out: % inhibition
T23 construct: purchased Eurofins DiscoverX (KINOMEscan)
Description: as §1

LCK = molecular target: T24, LCK (Homo sapiens, UniProt P06239); details: 35 at 1 µM; read-out: % inhibition
T24 construct: purchased Eurofins DiscoverX (KINOMEscan)
Description: as §1

LRRK2 = molecular target: T25, LRRK2 (Homo sapiens, UniProt Q5S007); details: 35 at 1 µM; read-out: % inhibition
T25 construct: purchased Eurofins DiscoverX (KINOMEscan)
Description: as §1

LRRK2(G2019S) = molecular target: T26, LRRK2(G2019S) (Homo sapiens, UniProt Q5S007, G2019S); details: 35 at 1 µM; read-out: % inhibition
T26 construct: purchased Eurofins DiscoverX (KINOMEscan)
Description: as §1

MAP4K3 = molecular target: T27, MAP4K3 (Homo sapiens, UniProt Q8IVH8); details: 35 at 1 µM; read-out: % inhibition
T27 construct: purchased Eurofins DiscoverX (KINOMEscan)
Description: as §1

PAK1 = molecular target: T28, PAK1 (Homo sapiens, UniProt Q13153); details: 35 at 1 µM; read-out: % inhibition
T28 construct: purchased Eurofins DiscoverX (KINOMEscan)
T28 sequence (Q13153 whole entry): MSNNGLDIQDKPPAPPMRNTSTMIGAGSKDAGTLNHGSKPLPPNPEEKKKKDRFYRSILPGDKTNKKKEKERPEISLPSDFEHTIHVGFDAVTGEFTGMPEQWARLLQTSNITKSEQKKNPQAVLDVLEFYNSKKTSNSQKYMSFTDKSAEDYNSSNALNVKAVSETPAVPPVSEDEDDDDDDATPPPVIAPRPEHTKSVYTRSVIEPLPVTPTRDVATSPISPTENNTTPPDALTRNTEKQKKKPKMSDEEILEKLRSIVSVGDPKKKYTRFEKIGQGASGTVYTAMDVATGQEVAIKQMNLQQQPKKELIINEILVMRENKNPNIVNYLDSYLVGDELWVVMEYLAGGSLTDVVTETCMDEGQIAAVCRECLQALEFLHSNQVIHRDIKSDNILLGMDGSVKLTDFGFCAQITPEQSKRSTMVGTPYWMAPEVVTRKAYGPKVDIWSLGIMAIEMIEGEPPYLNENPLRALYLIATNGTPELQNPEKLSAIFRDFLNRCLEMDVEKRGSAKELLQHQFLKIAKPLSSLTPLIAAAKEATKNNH
Description: as §1

PFPK5(P.falciparum) = molecular target: T29, PFPK5(P.falciparum) (Plasmodium falciparum, UniProt P61075); details: 35 at 1 µM; read-out: % inhibition
T29 construct: purchased Eurofins DiscoverX (KINOMEscan)
T29 sequence (P61075 whole entry): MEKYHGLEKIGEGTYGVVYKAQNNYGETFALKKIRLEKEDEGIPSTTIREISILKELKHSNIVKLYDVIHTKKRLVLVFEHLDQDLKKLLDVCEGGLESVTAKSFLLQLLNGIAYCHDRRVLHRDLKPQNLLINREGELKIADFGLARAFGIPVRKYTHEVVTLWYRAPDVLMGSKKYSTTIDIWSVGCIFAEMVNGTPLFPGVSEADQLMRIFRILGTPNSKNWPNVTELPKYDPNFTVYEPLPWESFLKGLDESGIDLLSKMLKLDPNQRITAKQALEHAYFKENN
Description: as §1

PIK3CA(H1047Y) = molecular target: T30, PIK3CA(H1047Y) (Homo sapiens, UniProt P42336, H1047Y); details: 35 at 1 µM; read-out: % inhibition
T30 construct: purchased Eurofins DiscoverX (KINOMEscan)
Description: as §1

PKN2 = molecular target: T31, PKN2 (Homo sapiens, UniProt Q16513); details: 35 at 1 µM; read-out: % inhibition
T31 construct: purchased Eurofins DiscoverX (KINOMEscan)
Description: as §1

PRP4 = molecular target: T32, PRP4 (Homo sapiens, UniProt Q13523); details: 35 at 1 µM; read-out: % inhibition
T32 construct: purchased Eurofins DiscoverX (KINOMEscan)
Description: as §1

PYK2 = molecular target: T33, PYK2 (Homo sapiens, UniProt Q14289); details: 35 at 1 µM; read-out: % inhibition
T33 construct: purchased Eurofins DiscoverX (KINOMEscan)
Description: as §1

RIPK2 = molecular target: T34, RIPK2 (Homo sapiens, UniProt O43353)
T34 construct: purchased Eurofins DiscoverX (KINOMEscan)
T34 sequence (O43353 whole entry): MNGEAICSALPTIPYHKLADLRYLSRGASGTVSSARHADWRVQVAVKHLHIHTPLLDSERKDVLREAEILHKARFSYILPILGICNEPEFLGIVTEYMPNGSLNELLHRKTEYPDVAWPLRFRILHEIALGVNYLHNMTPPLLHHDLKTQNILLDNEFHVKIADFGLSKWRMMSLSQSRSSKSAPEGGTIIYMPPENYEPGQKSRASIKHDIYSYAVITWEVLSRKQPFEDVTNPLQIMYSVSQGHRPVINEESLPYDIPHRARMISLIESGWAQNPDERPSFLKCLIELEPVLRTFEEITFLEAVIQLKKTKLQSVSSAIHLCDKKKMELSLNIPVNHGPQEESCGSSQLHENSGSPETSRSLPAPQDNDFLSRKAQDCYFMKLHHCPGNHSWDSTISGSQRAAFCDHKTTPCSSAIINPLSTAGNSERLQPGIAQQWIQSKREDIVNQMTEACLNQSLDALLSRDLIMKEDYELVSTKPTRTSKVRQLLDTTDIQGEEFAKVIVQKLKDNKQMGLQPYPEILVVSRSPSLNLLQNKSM
Description: as §1

SLK = molecular target: T35, SLK (Homo sapiens, UniProt Q9H2G2); details: 35 at 1 µM; read-out: % inhibition
T35 construct: purchased Eurofins DiscoverX (KINOMEscan)
Description: as §1

SgK110 = molecular target: T36, SgK110 (Homo sapiens, UniProt P0C264); details: 35 at 1 µM; read-out: % inhibition
T36 construct: purchased Eurofins DiscoverX (KINOMEscan)
Description: as §1

TIE2 = molecular target: T37, TIE2 (Homo sapiens, UniProt Q02763); details: 35 at 1 µM; read-out: % inhibition
T37 construct: purchased Eurofins DiscoverX (KINOMEscan)
T37 sequence (Q02763 23-1124): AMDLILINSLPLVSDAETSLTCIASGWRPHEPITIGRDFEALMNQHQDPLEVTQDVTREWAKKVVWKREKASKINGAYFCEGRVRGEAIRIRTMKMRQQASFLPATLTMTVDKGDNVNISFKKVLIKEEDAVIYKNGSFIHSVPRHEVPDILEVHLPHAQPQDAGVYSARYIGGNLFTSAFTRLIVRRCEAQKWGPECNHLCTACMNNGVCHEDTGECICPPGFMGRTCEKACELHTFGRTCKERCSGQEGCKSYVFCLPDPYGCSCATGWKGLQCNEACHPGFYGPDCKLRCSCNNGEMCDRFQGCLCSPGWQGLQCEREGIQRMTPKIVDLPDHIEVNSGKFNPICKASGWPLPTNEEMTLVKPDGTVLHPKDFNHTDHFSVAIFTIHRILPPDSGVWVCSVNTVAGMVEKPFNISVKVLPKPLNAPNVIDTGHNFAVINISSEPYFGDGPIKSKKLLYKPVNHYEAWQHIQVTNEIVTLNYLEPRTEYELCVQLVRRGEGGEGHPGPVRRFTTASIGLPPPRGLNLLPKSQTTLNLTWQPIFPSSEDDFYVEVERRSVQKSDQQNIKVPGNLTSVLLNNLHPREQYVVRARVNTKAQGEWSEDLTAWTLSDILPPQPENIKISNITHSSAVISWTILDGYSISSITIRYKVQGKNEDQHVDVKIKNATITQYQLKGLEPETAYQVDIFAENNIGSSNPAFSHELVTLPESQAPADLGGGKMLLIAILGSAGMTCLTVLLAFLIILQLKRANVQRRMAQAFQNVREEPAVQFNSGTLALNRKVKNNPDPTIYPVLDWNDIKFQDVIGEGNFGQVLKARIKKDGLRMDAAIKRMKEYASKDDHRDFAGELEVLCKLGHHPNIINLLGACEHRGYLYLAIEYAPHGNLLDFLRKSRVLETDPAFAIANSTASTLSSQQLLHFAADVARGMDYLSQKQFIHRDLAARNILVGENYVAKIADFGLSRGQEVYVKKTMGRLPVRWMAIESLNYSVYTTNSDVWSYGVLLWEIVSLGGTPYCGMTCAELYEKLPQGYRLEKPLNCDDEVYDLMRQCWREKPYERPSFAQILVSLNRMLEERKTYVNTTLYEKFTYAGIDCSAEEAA
Description: as §1

TXK = molecular target: T38, TXK (Homo sapiens, UniProt P42681); details: 35 at 1 µM; read-out: % inhibition
T38 construct: purchased Eurofins DiscoverX (KINOMEscan)
Description: as §1

TYRO3 = molecular target: T39, TYRO3 (Homo sapiens, UniProt Q06418); details: 35 at 1 µM; read-out: % inhibition
T39 construct: purchased Eurofins DiscoverX (KINOMEscan)
T39 sequence (Q06418 41-890): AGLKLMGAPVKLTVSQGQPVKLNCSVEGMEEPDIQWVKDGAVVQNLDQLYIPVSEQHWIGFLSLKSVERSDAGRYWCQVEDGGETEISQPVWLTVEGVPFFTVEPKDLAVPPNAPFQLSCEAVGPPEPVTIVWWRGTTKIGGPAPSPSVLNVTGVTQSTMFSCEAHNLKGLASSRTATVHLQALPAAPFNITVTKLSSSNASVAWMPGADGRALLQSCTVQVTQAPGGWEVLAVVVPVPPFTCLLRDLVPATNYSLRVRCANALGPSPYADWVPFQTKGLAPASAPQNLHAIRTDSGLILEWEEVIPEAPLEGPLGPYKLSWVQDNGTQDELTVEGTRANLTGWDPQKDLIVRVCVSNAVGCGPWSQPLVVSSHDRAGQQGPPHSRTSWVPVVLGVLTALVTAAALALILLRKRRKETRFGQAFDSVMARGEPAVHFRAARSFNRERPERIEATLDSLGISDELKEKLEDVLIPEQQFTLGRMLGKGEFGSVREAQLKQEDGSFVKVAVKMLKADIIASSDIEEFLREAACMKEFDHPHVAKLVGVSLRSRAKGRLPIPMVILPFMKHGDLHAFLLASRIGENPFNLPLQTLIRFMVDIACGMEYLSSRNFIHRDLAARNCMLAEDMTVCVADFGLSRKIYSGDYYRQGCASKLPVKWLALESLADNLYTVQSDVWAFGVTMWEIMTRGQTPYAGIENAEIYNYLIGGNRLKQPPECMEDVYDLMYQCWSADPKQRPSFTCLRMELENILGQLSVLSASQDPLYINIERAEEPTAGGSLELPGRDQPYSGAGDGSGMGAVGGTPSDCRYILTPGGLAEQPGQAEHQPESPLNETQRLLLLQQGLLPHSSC
Description: as §1

ULK3 = molecular target: T40, ULK3 (Homo sapiens, UniProt Q6PHR2); details: 35 at 1 µM; read-out: % inhibition
T40 construct: purchased Eurofins DiscoverX (KINOMEscan)
T40 sequence (Q6PHR2 whole entry): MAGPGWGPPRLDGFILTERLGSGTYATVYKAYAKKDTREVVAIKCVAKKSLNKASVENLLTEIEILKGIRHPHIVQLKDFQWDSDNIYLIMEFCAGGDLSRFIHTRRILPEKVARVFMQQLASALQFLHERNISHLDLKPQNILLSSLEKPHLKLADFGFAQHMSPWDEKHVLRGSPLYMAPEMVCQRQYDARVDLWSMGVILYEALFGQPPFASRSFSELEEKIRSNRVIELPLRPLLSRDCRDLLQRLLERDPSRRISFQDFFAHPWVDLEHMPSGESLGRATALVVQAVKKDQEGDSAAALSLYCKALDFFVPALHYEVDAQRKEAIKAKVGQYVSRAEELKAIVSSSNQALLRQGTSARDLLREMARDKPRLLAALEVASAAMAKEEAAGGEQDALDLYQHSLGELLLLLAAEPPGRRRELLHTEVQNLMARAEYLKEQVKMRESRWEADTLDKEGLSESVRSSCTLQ
Description: as §1

YES = molecular target: T41, YES (Homo sapiens, UniProt P07947); details: 35 at 1 µM; read-out: % inhibition
T41 construct: purchased EuroFins DiscoverX (Fremont, CA, USA)
Description: as §1

**Q.** `Brc1ccc2nccc(Nc3ccc4cn[nH]c4c3)c2c1` [Compound 35, 6-Bromo-N-(1H-indazol-6-yl)quinolin-4-amine] was tested. Which activity at 1 µM [1] did it give?
**A.** 85%

**Q.** What about the activity at 1 µM [2] of the same molecule?
**A.** 100%

**Q.** What about the activity at 1 µM (ABL1-nonphosphorylated) of the same molecule?
**A.** 88%

**Q.** What about the activity at 1 µM (ACVRL1) of the same molecule?
**A.** 100%

**Q.** And the activity at 1 µM (BRK)?
**A.** 93%

**Q.** And the activity at 1 µM (CDK4-cyclinD1)?
**A.** 100%

**Q.** What about the activity at 1 µM (CDK9) of the same molecule?
**A.** 75%

**Q.** What about the activity at 1 µM (CDKL3) of the same molecule?
**A.** 100%

**Q.** And the activity at 1 µM (CSNK1A1)?
**A.** 62%

**Q.** What about the activity at 1 µM (CSNK1A1L) of the same molecule?
**A.** 96%

**Q.** And the activity at 1 µM [3]?
**A.** 66%

**Q.** And the activity at 1 µM (EPHA4)?
**A.** 100%

**Q.** What about the activity at 1 µM (EPHB6) of the same molecule?
**A.** 100%

**Q.** What about the activity at 1 µM (ERK3) of the same molecule?
**A.** 100%

**Q.** What about the activity at 1 µM (FGR) of the same molecule?
**A.** 100%

**Q.** And the activity at 1 µM (FLT3(D835V))?
**A.** 100%

**Q.** And the activity at 1 µM (FRK)?
**A.** 100%

**Q.** And the activity at 1 µM (HCK)?
**A.** 100%

**Q.** What about the activity at 1 µM (IKK-beta) of the same molecule?
**A.** 100%

**Q.** What about the activity at 1 µM (INSR) of the same molecule?
**A.** 99%

**Q.** And the activity at 1 µM [4]?
**A.** 88%

**Q.** What about the activity at 1 µM (JNK2) of the same molecule?
**A.** 100%

**Q.** And the activity at 1 µM (KIT(V559D,V654A))?
**A.** 100%

**Q.** And the activity at 1 µM (LCK)?
**A.** 100%

**Q.** And the activity at 1 µM (LRRK2)?
**A.** 100%

**Q.** And the activity at 1 µM (LRRK2(G2019S))?
**A.** 73%

**Q.** And the activity at 1 µM (MAP4K3)?
**A.** 100%

**Q.** And the activity at 1 µM (PAK1)?
**A.** 85%

**Q.** And the activity at 1 µM (PFPK5(P.falciparum))?
**A.** 100%

**Q.** And the activity at 1 µM (PIK3CA(H1047Y))?
**A.** 100%

**Q.** And the activity at 1 µM (PKN2)?
**A.** 99%

**Q.** What about the activity at 1 µM (PRP4) of the same molecule?
**A.** 79%

**Q.** And the activity at 1 µM (PYK2)?
**A.** 100%

**Q.** What about the activity at 1 µM (RIPK2; 35 at 1 µM, read-out: % inhibition) of the same molecule?
**A.** 29%

**Q.** What about the inhibition at 1 µM (RIPK2; KinomeScan, screened at 1 μM, read-out: kinases inhibited at 1 μM: RIPK2) of the same molecule?
**A.** 71%

**Q.** What about the activity at 1 µM (SLK) of the same molecule?
**A.** 100%

**Q.** What about the activity at 1 µM (SgK110) of the same molecule?
**A.** 100%

**Q.** And the activity at 1 µM (TIE2)?
**A.** 100%

**Q.** And the activity at 1 µM (TXK)?
**A.** 100%

**Q.** What about the activity at 1 µM (TYRO3) of the same molecule?
**A.** 99%

**Q.** And the activity at 1 µM (ULK3)?
**A.** 81%

**Q.** And the activity at 1 µM (YES)?
**A.** 100%
